In US10316039B2, “P2X3 and/or P2X2/3 compounds and methods” (Asana Biosciences, LLC, priority 2013, dated 2019):

What was measured:
[1] = molecular target: T1, P2X3 (UniProt P56373); assay: P2X3 FLIPR intracellular calcium assay; type: cell-based; conditions: agonist at EC75, species (human or rat) not given
T1 sequence (P56373 1-397): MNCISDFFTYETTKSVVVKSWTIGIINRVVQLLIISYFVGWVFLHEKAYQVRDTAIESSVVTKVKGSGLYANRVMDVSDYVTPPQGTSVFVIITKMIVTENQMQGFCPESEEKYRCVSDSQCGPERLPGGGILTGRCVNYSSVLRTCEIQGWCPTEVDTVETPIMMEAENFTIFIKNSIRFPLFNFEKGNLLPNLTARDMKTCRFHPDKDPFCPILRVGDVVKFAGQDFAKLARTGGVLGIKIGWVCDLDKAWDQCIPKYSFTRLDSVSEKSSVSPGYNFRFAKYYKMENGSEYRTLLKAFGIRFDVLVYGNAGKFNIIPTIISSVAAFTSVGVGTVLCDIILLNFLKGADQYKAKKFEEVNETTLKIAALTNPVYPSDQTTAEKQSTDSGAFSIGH
From the text: The FLIPR® assay utilizes cells which express human or rat P2X3 or P2X2/3 receptors. […] The PCR product obtained containing the protein coding sequence of rat P2X2 was cloned into EcoRV-digested and dephosphorylated vector pIRES-puro3 within the multiple cloning site (MCS). See, FIG. 1A.
Rat P2X3 (NCBI Accession No: X91167) was amplified by PCR from rat brain cDNA. The PCR product obtained containing the protein coding sequence of rat P2X3 was cloned into EcoRV-digested and dephosphorylated vector pCDNA-Hygro within the multiple cloning site (MCS) (FIG. 1B). Rat P2X3 cloned into pcDNA-Hygro was then subcloned into pcDNA-5/TO at HindIII (5′) and XhoI (3′) sites within the multiple cloning site (MCS) of the vector (FIG. 1C).
(§1) Transfection was carried out using super-coiled constructs (purified using QIAGEN kit) in antibiotic free, serum free DMEM using Lipofectamine® 2000 (Invitrogen) transfection agent. The DNA constructs rat P2X2 in pIRES-Puro3 and rat P2X3 in pCDNA5/TO were co-transfected into TRex293 cells in order to generate the rP2X2/3 stable line. 50 μg/mL hygromycin (Invitrogen) and 0.5 μg/mL puromycin (Fermentek) were used for selection of stable clones of rP2X2/3. Rat P2X3 in pCDNA5/TO DNA construct was transfected to CHO-TRex cells to generate the rP2×3 stable line and 500 μg/mL hygromycin (Invitrogen) was used as selection antibiotic. Transfected stable colonies were then functionally verified and robust clones suitable for assay were clonally purified through dilutions.
(§2) Cryo-vial containing 6×10^6 cells (human P2X3-HEK/human P2X2/3-TRex293/rat P2X2/3-TRex293/rat P2X3 TRex-CHO) was thawed in a 37° C. water bath. Cells were suspended in 20 mL of respective cell plating media (See annexure for composition) in a 50 mL centrifuge tube. The cell viability was checked with the help of Trypan Blue dye. Upon washing, cells were plated in a black 384-well clear bottomed, sterile poly-D-lysine coated plate such that, each well contained 10,000 cells (15,000/well for hP2X3) in 30 μL cell plating media. The plate was incubated in a 5% CO2 incubator at 37° C. for 24 h.
(§3) The next day, prior to the assay, the cell plating media was removed from each well by decanting and gentle tapping. Thirty μL of FLIPR Calcium 4 dye solution was added to each well. The plate was incubated at 37° C. for 45 min (60 min for hP2X3). The plate was next equilibrated at room temperature for 15 minutes before placing it in a 384 well FLIPR for the assay.
Dilutions were mixed with assay buffer just before performing the assay.
(§4) Compounds were added to the respective wells of the assay-ready cell plate with the help of the FLIPR and fluorescence readings were captured for 5 min to observe any possible agonistic property of the compounds. The plate was then incubated at room temperature for 15 min. The cells were stimulated with respective agonist EC75 concentration and the fluorescence readings were captured for another 5 min by FLIPR. The difference in fluorescence readings in presence of the compounds were compared with that of the control wells (wells having no compound) to calculate the inhibitory potency of the compounds. The IC50 values of the compounds were determined using the Graph pad Prism software.
(vi) Dye Solution Composition • 1×FLIPR Calcium 4 dye in assay buffer (Molecular devices Cat# R8141) • 1.8 mM Probenecid (Sigma Cat# P8761) • pH adjusted to 7.4

[2] = molecular target: T2, P2X2/3 (Homo sapiens, UniProt P56373+Q9UBL9); assay: P2X2/3 FLIPR intracellular calcium assay; type: cell-based; conditions: agonist at EC75, species (human or rat) not given
T2 sequence (Q9UBL9 1-471): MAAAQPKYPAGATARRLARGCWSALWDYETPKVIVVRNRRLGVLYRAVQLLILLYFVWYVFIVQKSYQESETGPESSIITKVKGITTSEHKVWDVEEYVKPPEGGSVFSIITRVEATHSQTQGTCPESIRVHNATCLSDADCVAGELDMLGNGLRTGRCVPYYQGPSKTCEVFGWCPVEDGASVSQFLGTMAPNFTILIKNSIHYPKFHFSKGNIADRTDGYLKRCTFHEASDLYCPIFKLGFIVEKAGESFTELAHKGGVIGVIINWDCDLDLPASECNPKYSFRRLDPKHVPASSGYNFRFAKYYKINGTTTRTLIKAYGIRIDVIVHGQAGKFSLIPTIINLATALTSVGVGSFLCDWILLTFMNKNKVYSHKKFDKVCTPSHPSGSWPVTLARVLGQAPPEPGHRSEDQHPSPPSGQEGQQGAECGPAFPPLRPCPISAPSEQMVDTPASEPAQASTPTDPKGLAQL
T2 sequence (P56373 1-397): T1 sequence (P56373 1-397)
From the text: The FLIPR® assay utilizes cells which express human or rat P2X3 or P2X2/3 receptors. Recombinant cells expressing hP2X3 (Cat#6188) and hP2X2/3 (Cat#6179) were procured from Chantest Corp. Rat P2X2 (NCBI Accession No: U14414) was amplified by PCR from PC12 cDNA (a rat adrenal medulla cell line). The PCR product obtained containing the protein coding sequence of rat P2X2 was cloned into EcoRV-digested and dephosphorylated vector pIRES-puro3 within the multiple cloning site (MCS). See, FIG. 1A.
as §1, §2, §3
Compounds were dissolved in DMSO and serially diluted following 11 point half log (3.16 fold) dilution with a starting concentration of 2 mM. Dilutions were mixed with assay buffer just before performing the assay.
as §4
(ii) Cell Plating Media for hP2X3-HEK and hP2X2/3-TRex293 Cells • DMEM/F12 (1:1) HAM media (Invitrogen; Cat#11039) • 1×NEAA (Invitrogen; Cat#11140) • 25 mM HEPES (Invitrogen; Cat#15630) • 1 mM sodium pyruvate (Invitrogen; Cat#11360) • 10% tetracycline negative FBS (PAA; Cat# A15-209) • 1 μg/mL doxycycline (Clontech; Cat#63131) [for hP2X2/3-TRex293 cells only]
(iii) Cell Plating Media for rP2X2/3-TRex293 Cells • DMEM media (Invitrogen; Cat#11965) • 25 mM HEPES (Invitrogen; Cat#15630) • 10% tetracycline negative FBS (PAA; Cat# A15-209) • 1 μg/mL Doxycycline (Clontech; Cat#63131)
(v) Assay Buffer Composition • HBSS (Invitrogen Cat#14025) • 20 mM HEPES (Invitrogen Cat#15630) • 0.01% F127 (Sigma Cat# P2443) • 1.8 mM CaCl2 (Sigma Cat# C5080) • pH adjusted to 7.4 […]

| Compound | IC50 [1] | IC50 [2] |
| --- | --- | --- |
| Cc1ccccc1-c1cnc2c(N3CCC(C)CC3)cc(C(=O)N[C@@H](C)c3nnc[nH]3)cn12 [Example 15, (S)—N-(1-(4H-1,2,4-Triazol-3-yl)ethyl)-8-(4-methylpiperidin-1-yl)-3-(o-tolyl)imidazo[1,2-a]pyridine-6-carboxamide] | 100 to 1000 nM | 1000 to 10000 nM |
| CCc1nnc(-c2cc(C(=O)NCc3ccc(C)nc3)cn3c(-c4ccc(C)s4)cnc23)o1 [Example 21] | 1 to 100 nM | 100 to 1000 nM |
| CCc1cnnn1-c1cc(C(=O)NCc2cnc(C)nc2)cn2c(-c3ccc(C)s3)cnc12 [Example 33] | 1 to 100 nM | 1 to 100 nM |
| Cc1ncc(CNC(=O)c2cc(-n3nncc3C(F)F)c3ncc(-c4ccc(C)s4)n3c2)cn1 [Example 31] | 1 to 100 nM | 1 to 100 nM |
| Cc1ccc(CNC(=O)c2cc(-n3nncc3C(F)F)c3ncc(-c4ncc(C)s4)n3c2)cn1 [Example 36] | 1 to 100 nM | 1 to 100 nM |
| COc1ncc(CNC(=O)c2cc(-n3nncc3C(F)(F)F)c3ncc(-c4ccc(C)s4)n3c2)cn1 [Example 44] | 1 to 100 nM | 1 to 100 nM |
| CCc1cnnn1-c1cc(C(=O)N[C@@H](C)c2nnc[nH]2)cn2c(-c3ccc(C)s3)cnc12 [Example 23] | 1 to 100 nM | 100 to 1000 nM |
| COc1ncc(CNC(=O)c2cc(-n3nncc3C3CC3)c3ncc(-c4ccc(C)s4)n3c2)cn1 [Example 42] | 1 to 100 nM | 1 to 100 nM |
| Cc1ccc(-c2cnc3c(N4CCC(C)CC4)cc(C(=O)N[C@@H](C)c4nnc[nH]4)cn23)s1 [Example 11, (S)—N-(1-(4H-1,2,4-Triazol-3-yl)ethyl)-8-(4-methylpiperidin-1-yl)-3-(5-methylthiophen-2-yl)imidazo[1,2-a]pyridine-6-carboxamide] | 1 to 100 nM | 100 to 1000 nM |
| Cc1ccc(CNC(=O)c2cc(-n3nnnc3C(F)F)c3ncc(-c4ccc(C)s4)n3c2)cn1 [Example 18, 8-(5-(Difluoromethyl)-1H-tetrazol-1-yl)-N-((6-methylpyridin-3-yl)methyl)-3-(5-methylthiophen-2-yl)imidazo[1,2-a]pyridine-6-carboxamide] | 1 to 100 nM | 1 to 100 nM |
| Cc1ccc(-c2cnc3c(-n4nncc4C(F)F)cc(C(=O)N[C@@H](C)c4nnco4)cn23)s1 [Example 14, (S)—N-(1-(1,3,4-Oxadiazol-2-yl)ethyl)-8-(5-(difluoromethyl)-1H-1,2,3-triazol-1-yl)-3-(5-methylthiophen-2-yl)imidazo[1,2-a]pyridine-6-carboxamide] | 1 to 100 nM | 100 to 1000 nM |
| Cc1ccc(-c2cnc3c(-n4nncc4C4CCC4)cc(C(=O)N[C@@H](C)c4nnc[nH]4)cn23)s1 [Example 43] | 1 to 100 nM | 1 to 100 nM |

Results, then the compound that gave them:

| IC50 [1] | IC50 [2] | Compound |
| --- | --- | --- |
| 100 to 1000 nM | 1000 to 10000 nM | Cc1ccc(-c2cnc3c(-n4nnnc4C(C)C)cc(C(=O)NC(C)c4cnccn4)cn23)s1 (stereo not drawn) [Example 159] |
| 1 to 100 nM | 1 to 100 nM | CC[C@H](NC(=O)c1cc(-n2nnnc2C(F)F)c2ncc(-c3ccc(Cl)s3)n2c1)c1nnc[nH]1 [Example 174] |
| 100 to 1000 nM | 100 to 1000 nM | Cc1ncc(CNC(=O)c2cc(-n3nncc3C(F)F)c3ncc(-c4cnc(C)s4)n3c2)cn1 [Example 66] |
| 100 to 1000 nM | 1000 to 10000 nM | C[C@H](NC(=O)c1cc(-n2nncc2C(F)F)c2ncc(-c3ccc(C(F)(F)F)s3)n2c1)c1nnc[nH]1 [Example 59] |
| 1 to 100 nM | 1 to 100 nM | Cc1ncc(CNC(=O)c2cc(-n3nncc3CC(F)(F)F)c3ncc(-c4ccc(C)s4)n3c2)cn1 [Example 80] |
| 1 to 100 nM | 1 to 100 nM | C[C@H](NC(=O)c1cc(-n2nnnc2C(F)F)c2ncc(-c3ccc(Cl)s3)n2c1)c1nnc[nH]1 [Example 170] |
| 1 to 100 nM | 1 to 100 nM | CC[C@H](NC(=O)c1cc(-n2nncc2C(C)(C)C)c2ncc(-c3ccc(C)s3)n2c1)c1nnc[nH]1 [Example 67] |
| 100 to 1000 nM | 100 to 1000 nM | Cc1ccc(-c2cnc3c(NC4CCCCC4)cc(C(=O)N[C@@H](C)c4nnc[nH]4)cn23)s1 [Example 121] |
| 1 to 100 nM | 1 to 100 nM | CCCc1cnnn1-c1cc(C(=O)N[C@@H](C)c2nnc[nH]2)cn2c(-c3ccc(C)s3)cnc12 [Example 63] |
| 1 to 100 nM | 1000 to 10000 nM | CCc1nnnn1-c1cc(C(=O)NC(C)c2cnccn2)cn2c(-c3ccc(C)s3)cnc12 (stereo not drawn) [Example 162] |
| 1 to 100 nM | 1 to 100 nM | Cc1ncc(CNC(=O)c2cc(-n3nncc3C(C)(F)F)c3ncc(-c4ccc(C)s4)n3c2)cn1 [Example 72] |
| 1 to 100 nM | 100 to 1000 nM | Cc1ccc(-c2cnc3c(N4CCC(CF)CC4)cc(C(=O)N[C@@H](C)c4nnc[nH]4)cn23)s1 [Example 133] |
| 1 to 100 nM | 1 to 100 nM | Cc1ccc(-c2cc(C(=O)N[C@@H](C)c3nnc[nH]3)cn3c(-c4ccc(C)s4)cnc23)s1 [Example 101] |
| 1 to 100 nM | 100 to 1000 nM | COC1CCN(c2cc(C(=O)N[C@@H](C)c3nnc[nH]3)cn3c(-c4ccc(C)s4)cnc23)C1 (stereo partly drawn) [Example 138] |
| > 10000 nM | 100 to 1000 nM | Cc1ncc(CNC(=O)c2cc(-n3nncc3C3CCC3)c3ncc(-c4ncc(C)s4)n3c2)cn1 [Example 55] |
